The NIST ThermoML archive (doi:10.1016/j.jct.2012.12.001)
“And” between values parts separate entries of the source, which are not always exact repeats. Identical values can stand only once.

Assay: heat capacity at constant pressure per volume; xn = mol fraction of the nth substance listed
Conditions: 101 kPa, Liquid, DSC, x2 = 0.695

CCCCCCCCCCCCCCCCC [heptadecane] + N#Cc1ccccc1
Conditions | heat capacity
319 K | 1720700 J/K/m3
319.1 K | 1720600 J/K/m3
319.2 K | 1720500 J/K/m3
319.3 K | 1720600 J/K/m3
319.5 K | 1721300 J/K/m3
319.6 K | 1721200 J/K/m3
319.7 K | 1720900 J/K/m3
319.8 K | 1720700 J/K/m3
319.9 K | 1720500 J/K/m3
320 K | 1720400 J/K/m3
320.1 K | 1720500 J/K/m3
320.2 K | 1720300 J/K/m3
320.3 K | 1720800 J/K/m3
320.4 K | 1720700 J/K/m3
320.5 K | 1720400 J/K/m3
320.61 K | 1720200 J/K/m3
320.7 K | 1720000 J/K/m3
320.8 K | 1720000 J/K/m3
320.9 K | 1719900 J/K/m3
321 K | 1720300 J/K/m3
321.1 K | 1720600 J/K/m3
321.2 K | 1720600 J/K/m3
321.3 K | 1720600 J/K/m3
321.4 K | 1720400 J/K/m3
321.5 K | 1720000 J/K/m3
321.61 K | 1719900 J/K/m3
321.7 K | 1720100 J/K/m3
321.8 K | 1720100 J/K/m3
321.89 K | 1720400 J/K/m3
322 K | 1720500 J/K/m3
322.1 K | 1720500 J/K/m3
322.2 K | 1720100 J/K/m3
322.3 K | 1720100 J/K/m3
322.4 K | 1720300 J/K/m3
322.5 K | 1720600 J/K/m3
322.6 K | 1720600 J/K/m3
322.7 K | 1720800 J/K/m3
322.81 K | 1721200 J/K/m3
322.9 K | 1720800 J/K/m3
323 K | 1720200 J/K/m3
323.11 K | 1720200 J/K/m3
323.2 K | 1720100 J/K/m3
323.3 K | 1720100 J/K/m3
323.4 K | 1720200 J/K/m3
323.5 K | 1720700 J/K/m3
323.6 K | 1720800 J/K/m3
323.7 K | 1720800 J/K/m3
323.8 K | 1720500 J/K/m3
323.9 K | 1720400 J/K/m3
324 K | 1720200 J/K/m3
324.1 K | 1720200 J/K/m3
324.2 K | 1720200 J/K/m3
324.3 K | 1720300 J/K/m3
324.4 K | 1720500 J/K/m3
324.5 K | 1720500 J/K/m3
324.6 K | 1720500 J/K/m3
324.7 K | 1720600 J/K/m3
324.8 K | 1720600 J/K/m3
324.9 K | 1720400 J/K/m3
325 K | 1720700 J/K/m3
325.1 K | 1720700 J/K/m3
325.2 K | 1720400 J/K/m3
325.3 K | 1719500 J/K/m3
325.4 K | 1720300 J/K/m3
325.5 K | 1720500 J/K/m3
325.6 K | 1720300 J/K/m3
325.7 K | 1720400 J/K/m3
325.8 K | 1720200 J/K/m3
325.9 K | 1720200 J/K/m3
326 K | 1720600 J/K/m3
326.1 K | 1720900 J/K/m3
326.2 K | 1720900 J/K/m3
326.3 K | 1720900 J/K/m3
326.4 K | 1720400 J/K/m3
326.5 K | 1720200 J/K/m3
326.6 K | 1720300 J/K/m3
326.7 K | 1720400 J/K/m3
326.8 K | 1720400 J/K/m3
326.9 K | 1720700 J/K/m3
327 K | 1721000 J/K/m3
327.1 K | 1721000 J/K/m3
327.2 K | 1721100 J/K/m3
327.3 K | 1720800 J/K/m3
327.41 K | 1720500 J/K/m3
327.5 K | 1720400 J/K/m3
327.6 K | 1720500 J/K/m3
327.7 K | 1721000 J/K/m3
327.8 K | 1721200 J/K/m3
327.9 K | 1720800 J/K/m3
328 K | 1720800 J/K/m3
328.1 K | 1720800 J/K/m3
328.2 K | 1720900 J/K/m3
328.3 K | 1720700 J/K/m3
328.4 K | 1720800 J/K/m3
328.5 K | 1721000 J/K/m3
328.6 K | 1721500 J/K/m3
328.7 K | 1721400 J/K/m3
328.8 K | 1721200 J/K/m3
328.9 K | 1721300 J/K/m3
329 K | 1720900 J/K/m3
329.1 K | 1720900 J/K/m3
329.2 K | 1720800 J/K/m3
329.3 K | 1720700 J/K/m3
329.4 K | 1721000 J/K/m3
329.5 K | 1721100 J/K/m3
329.61 K | 1721300 J/K/m3
329.7 K | 1721300 J/K/m3
329.8 K | 1721400 J/K/m3
329.9 K | 1721400 J/K/m3
330 K | 1721300 J/K/m3
330.1 K | 1722000 J/K/m3
330.2 K | 1722500 J/K/m3
330.3 K | 1722400 J/K/m3
330.4 K | 1722100 J/K/m3
330.5 K | 1721600 J/K/m3
330.61 K | 1721600 J/K/m3
330.7 K | 1721300 J/K/m3
330.8 K | 1721300 J/K/m3
330.9 K | 1721300 J/K/m3
331 K | 1721500 J/K/m3
331.1 K | 1721700 J/K/m3
331.2 K | 1721500 J/K/m3
331.3 K | 1721200 J/K/m3
331.4 K | 1721400 J/K/m3
331.5 K | 1721300 J/K/m3
331.6 K | 1721300 J/K/m3
331.7 K | 1721500 J/K/m3
331.81 K | 1721700 J/K/m3
331.9 K | 1722000 J/K/m3
332 K | 1722000 J/K/m3
332.1 K | 1721900 J/K/m3
332.2 K | 1722100 J/K/m3
332.3 K | 1722100 J/K/m3
332.4 K | 1722000 J/K/m3
332.5 K | 1722000 J/K/m3
332.6 K | 1722200 J/K/m3
332.7 K | 1722600 J/K/m3
332.8 K | 1722700 J/K/m3
332.9 K | 1722700 J/K/m3
333 K | 1722600 J/K/m3
333.1 K | 1722200 J/K/m3
333.2 K | 1721900 J/K/m3
333.31 K | 1721900 J/K/m3
333.4 K | 1722000 J/K/m3
333.5 K | 1722000 J/K/m3
333.6 K | 1722200 J/K/m3
333.7 K | 1722700 J/K/m3
333.8 K | 1722800 J/K/m3
333.9 K | 1722600 J/K/m3
334 K | 1722600 J/K/m3
334.1 K | 1722700 J/K/m3
334.2 K | 1722600 J/K/m3
334.3 K | 1722900 J/K/m3
334.4 K | 1723400 J/K/m3
334.5 K | 1723900 J/K/m3
334.6 K | 1723800 J/K/m3
334.7 K | 1723400 J/K/m3
334.8 K | 1723000 J/K/m3
334.9 K | 1722900 J/K/m3
335 K | 1723100 J/K/m3
335.1 K | 1723300 J/K/m3
335.2 K | 1723600 J/K/m3
335.3 K | 1723700 J/K/m3
335.4 K | 1723700 J/K/m3
335.5 K | 1723700 J/K/m3
335.6 K | 1723600 J/K/m3
335.7 K | 1723500 J/K/m3
335.8 K | 1723300 J/K/m3
335.9 K | 1723400 J/K/m3
336 K | 1723600 J/K/m3
336.1 K | 1723400 J/K/m3
336.2 K | 1723600 J/K/m3
336.3 K | 1723200 J/K/m3
336.4 K | 1723100 J/K/m3
336.5 K | 1723300 J/K/m3
336.6 K | 1723400 J/K/m3
336.7 K | 1723700 J/K/m3
336.8 K | 1724100 J/K/m3
336.9 K | 1724400 J/K/m3
337 K | 1724100 J/K/m3
337.1 K | 1724200 J/K/m3
337.18 K | 1724100 J/K/m3
337.32 K | 1723700 J/K/m3
337.43 K | 1723700 J/K/m3
337.52 K | 1724100 J/K/m3
337.6 K | 1724300 J/K/m3
337.73 K | 1724500 J/K/m3
337.8 K | 1724400 J/K/m3
337.9 K | 1724900 J/K/m3
338 K | 1724800 J/K/m3
338.01 K | 1724800 J/K/m3
338.02 K | 1724900 J/K/m3
338.03 K | 1724900 J/K/m3
338.45 K | 1724800 J/K/m3 and 1724900 J/K/m3
338.53 K | 1725300 J/K/m3
338.58 K | 1725400 J/K/m3
338.59 K | 1725200 J/K/m3
338.6 K | 1725300 J/K/m3
338.62 K | 1725200 J/K/m3
339 K | 1724600 J/K/m3 and 1724700 J/K/m3
339.01 K | 1724600 J/K/m3 and 1724500 J/K/m3
339.1 K | 1724700 J/K/m3 and 1724600 J/K/m3
339.11 K | 1724700 J/K/m3 and 1724800 J/K/m3
339.13 K | 1724700 J/K/m3
339.2 K | 1725100 J/K/m3
